Data set [1] in a line: longitudinal relaxivity rl in human blood plasma at 37° C. The data set is classed as physicochemical. As to conditions: for longitudinal relaxivity rl calculated for a field of 3 T: calculated from the measurements at lower fields. On the procedure:
Compound 23 was dissolved in human blood plasma and the longitudinal relaxivity rl was measured at 37° C. at the following fields:
Compound 13 was dissolved in human blood plasma and the longitudinal relaxivity rl was measured at 37° C. at the following fields:
Compound 36 was dissolved in human blood plasma and the longitudinal relaxivity rl was measured at 37° C. at the following fields:
Compound 40 was dissolved in human blood plasma and the longitudinal relaxivity rl was measured at 37° C. at the following fields:
Compound 43 was dissolved in human blood plasma and the longitudinal relaxivity rl was measured at 37° C. at the following fields:
Compound 46 was dissolved in human blood plasma and the longitudinal relaxivity rl was measured at 37° C. at the following fields: […]

The conditions of data set [2]: 3 T, human blood plasma, 37° C., published data; cited from earlier work.

Like-named read-outs stand apart in the source and are kept apart here.

In the case of `Cc1c(C(=O)N(C)c2cccc(N(C)C(=O)C(C)N3CCN4CCN5CCN(CC3)CC(=O)[O][Gd]([O]C(=O)C5)[O]C(=O)C4)c2)c(C)c(C(=O)N(C)c2cccc(N(C)C(=O)C(C)N3CCN4CCN5CCN(CC3)CC(=O)[O][Gd]([O]C(=O)C5)[O]C(=O)C4)c2)c(C)c1C(=O)N(C)c1cccc(N(C)C(=O)C(C)N2CCN3CCN4CCN(CC2)CC(=O)[O][Gd]([O]C(=O)C4)[O]C(=O)C3)c1` (stereo not shown) [Compound 46], the longitudinal relaxivity rl was found to be 10.9 mM^1s^1 in data set [1] (0.235 T), 10.1 mM^1s^1 in data set [1] (0.47 T) and 8.9 mM^1s^1 in data set [1] (1.41 T). Further, the “longitudinal relaxivity rl calculated for a field of 3 T” value (“longitudinal relaxivity rl calculated” below) in data set [1] (3 T) is given as 9 mM^1s^1.

Turning to “gadolinium derivative of 1,3,5-tris-(N-(DO3A-acetamido)-N-methyl-4-amino-2-methyl-phenyl)-[1,3,5]triazinane-2,4,6-trione [Compound 23]”, the longitudinal relaxivity rl in data set [1] (0.25 T) worked out at 10.7 mM⁻¹ s⁻¹; in data set [1] (1.5 T) it was 11.6 mM^1s^1; in data set [1] (2.35 T), 10.1 mM^1s^1; in data set [1] (3 T) it was 9.9 mM^1s^1.

Consider “gadolinium derivative of benzene-1,3,5-tris-[((DO3A-acetamido)-3-(N′-methylamido-phenyl))-carboxamide)] [Compound 13]”, for which the longitudinal relaxivity rl in data set [1] (1.5 T) is recorded as 9.2 mM^1s^1; in data set [1] (2.35 T), 9.5 mM^1s^1. Also, the “longitudinal relaxivity rl calculated” value in data set [1] (3 T) is recorded as 9.0 mM^1s^1.

`Cc1c(C(=O)N(C)c2cccc(NC(=O)CN3CCN4CCN5CCN(CC3)CC(=O)[O][Gd]([O]C(=O)C4)[O]C(=O)C5)c2)c(C)c(C(=O)N(C)c2cccc(NC(=O)CN3CCN4CCN5CCN(CC3)CC(=O)[O][Gd]([O]C(=O)C4)[O]C(=O)C5)c2)c(C)c1C(=O)N(C)c1cccc(NC(=O)CN2CCN3CCN4CCN(CC2)CC(=O)[O][Gd]([O]C(=O)C3)[O]C(=O)C4)c1` [Compound 36, gadolinium derivative of 2,4,6-trimethylbenzene-1,3,5-tris-[(DO3A-(3-acetamidophenyl))-N-methyl-carboxamide]]: the figures for the longitudinal relaxivity rl in data set [1] (0.235 T), in data set [1] (0.47 T) and in data set [1] (1.41 T) were 9.3 mM^1s^1, 8.8 mM^1s^1 and 7.3 mM^1s^1, respectively. The “longitudinal relaxivity rl calculated” value in data set [1] (3 T) is given as 8.5 mM^1s^1.

As to `CNC[C@H](O)[C@@H](O)[C@H](O)[C@H](O)CO.CNC[C@H](O)[C@@H](O)[C@H](O)[C@H](O)CO.O=C([O-])CN(CCN(CC(=O)[O-])CC(=O)O)CCN(CC(=O)O)C(COCc1ccccc1)C(=O)[O-].[Gd+3]` (stereo not shown) [Multihance], in data set [2], the longitudinal relaxivity rl is listed as 6.3 mM^1s^1.

In the case of “gadolinium derivative of 2,4,6-trimethylbenzene-1,3,5-tris-[N-methyl-((2-DO3A-propyl)-3-(N′-methyl-amidophenyl))-carboxamide)] [Compound 43]”, the figures for the longitudinal relaxivity rl in data set [1] (0.235 T), in data set [1] (0.47 T) and in data set [1] (1.41 T) were 12 mM^1s^1, 10.6 mM^1s^1 and 9 mM^1s^1, respectively. Further, in data set [1] (3 T), the “longitudinal relaxivity rl calculated” value was 8.2 mM^1s^1.

For `Cc1c(C(=O)N(C)c2cccc(NC(=O)C(C)N3CCN4CCN5CCN(CC3)CC(=O)[O][Gd]([O]C(=O)C5)[O]C(=O)C4)c2)c(C)c(C(=O)N(C)c2cccc(NC(=O)C(C)N3CCN4CCN5CCN(CC3)CC(=O)[O][Gd]([O]C(=O)C5)[O]C(=O)C4)c2)c(C)c1C(=O)N(C)c1cccc(NC(=O)C(C)N2CCN3CCN4CCN(CC2)CC(=O)[O][Gd]([O]C(=O)C4)[O]C(=O)C3)c1` (stereo not shown) [Compound 40], the longitudinal relaxivity rl was 10.1 mM^1s^1 in data set [1] (0.235 T), 8.6 mM^1s^1 in data set [1] (0.47 T) and 9.1 mM^1s^1 in data set [1] (1.41 T). The “longitudinal relaxivity rl calculated” value in data set [1] (3 T) is given as 9 mM^1s^1.

Consider `CNC[C@H](O)[C@@H](O)[C@H](O)[C@H](O)CO.CNC[C@H](O)[C@@H](O)[C@H](O)[C@H](O)CO.O=C([O-])CN(CCN(CC(=O)[O-])CC(=O)O)CCN(CC(=O)[O-])CC(=O)O.[Gd+3]` [Magnevist], for which the longitudinal relaxivity rl in data set [2] is 3.3 mM^1s^1.

These data come from US20090238768A1, “MULTIMERIC MAGNETIC RESONANCE CONTRAST AGENTS” (priority 2005, published 2009).
